“Also recorded” adds a separate entry of the source.
Columns and labels:
rabbits = test: Extended three-month toxicity study in rabbits; format: in vivo; conditions: doses 1/100 to 1/40 LD50
Description: (§1) The extended toxicity studies were carried out for a three-month period in rabbits and rats. Doses of from 1/100 to 1/40 LD50 were administered in the case of rabbits, and of from 1/150 to 1/50 LD50 in the case of rats. It should be noted that the highest doses were also the maximum tolerance doses during 12 weeks.

[1] = system: smooth muscle in the small intestine and the urinary bladder; test: Action on smooth muscle of small intestine and urinary bladder; format: in vivo; conditions: 10 mg/kg, rabbit
lymphatic system = test: Extended toxicity: lymphatic system; format: in vivo, rabbits and rats; conditions: three-month study
Description: as §1

[2] = Acute toxicity, signs and comparison with other acridine derivatives; format: in vivo
Description: (§2) On the other hand, similar doses as related to oral administration are about 100 mg/kg.
(§3) The MTD-values by oral administration are even lower i.e., by 53-66% than the sharp lethal dose.

rats [3] = test: Extended three-month toxicity study in rats; format: in vivo; conditions: doses 1/150 to 1/50 LD50
Description: as §1

circulatory system [4] = test: Circulatory action in atropinized animals; format: in vivo; conditions: atropinized rabbits
Crocker Sarcoma (Sa-180) = test: Inhibition of growth of Crocker Sarcoma (Sa-180) in mice; format: in vivo; conditions: 33 determinations in ten series, different doses
Description: The inhibition of growth of Crocker Sarcoma (Sa-180) in mice.
For these experiments mice, three months old and about 25 g in weight were used. Each of them was inoculated with a section of sarcoma (Sa-180 and then they were divided in groups: one of control -- 10 mice, and two to four groups of the "being under treatment"-mice (7 mice each).
The compound investigated in corresponding doses were administered intraperitoneally in appropriate doses, prior to which a maximum tolerance dose was determined.
As a criterion for evaluation of the anti-neoplastic activity of the compounds investigated, the percent difference of the mean weights of tumours isolated from control mice, and the "treated" mice was used, taking into consideration the toxic effects. As active compounds were those which have inhibited, by at least 40%, the growth of the tumours, in at least two tests without any dying of the animals (less than 2 mice), or any mean losses of the weight greater than 4 g.
The investigations in vivo of several compounds were carried out several times, e.g., for the preparation labeled code number C-829, that is for 1-nitro-9-(2-dimethylamino-1-methylethylamino)-acridine dihydrochloride. […] In doses of 0.05 to 0.2 mg/kg the percent of inhibition was 17 to 73%, correspondingly.

respiratory system = test: Influence on the respiratory system; format: in vivo
Source text: The influence exerted by the preparation on the respiratory system is of two-phases.

kidneys = system: kidneys; parameters: species or system rabbits and rats; conditions: in vivo
Description: as §1

peripheral blood = test: Extended toxicity: peripheral blood and clotting; format: in vivo, rabbits and rats
Description: as §1

central nervous system = format: in vivo
Source text: The preparation C-829 exerted an effect on the principal functions of the central nervous system.

liver = system: liver; parameters: species or system rabbits and rats; conditions: in vivo
Description: as §1
By prolonged exposition, the influence of the preparation C-829 on the functions of the parenchymateous organs (liver, kidneys) was investigated. […] Only the thymol turbidity test resulted as a positive one, using the highest dosage of the preparation. But it should be kept in mind, that this test is not too exact.

[5] = system: muscular coat of the small intestine; test: In vitro action on muscular coat of small intestine, rat; conditions: 10^-5 to 5×10^-5, rat
[6] = system: muscular coat of the small intestine; test: In vitro action on muscular coat of small intestine, guinea-pig; conditions: 10^-5 to 5×10^-5, guinea-pig
[7] = Acute toxicity by oral administration (LD50, MTD); format: in vivo; conditions: in vivo, mice and rats
Description: as §2, §3

mice and rats = test: Acute toxicity by oral administration (LD50, MTD); format: in vivo
Description: as §2, §3

reproductory functions = test: Influence on reproductory functions; format: in vivo
[8] = Acute toxicity i.v. in mice (LD50, MTD); format: in vivo; conditions: mouse, in vivo, iv, on average
mice = test: Acute toxicity i.v. in mice (LD50, MTD); format: in vivo
[9] = Acute toxicity i.v. in rats (LD50, MTD); format: in vivo; conditions: rat, in vivo, iv, on average
rats [10] = test: Acute toxicity i.v. in rats (LD50, MTD); format: in vivo
[11] = Local irritation by aqueous solution; format: in vivo
circulatory system [12] = test: Circulatory and electrocardiographic effects; format: in vivo

Q: Which results are given for CC(CN(C)C)Nc1c2ccccc2nc2cccc([N+](=O)[O-])c12.Cl.Cl (stereo not drawn) [Example C-829, 1-nitro-9-(2-dimethylamino-1-methylethylamino)-acridine dihydrochloride]?
A: maximum tolerance dose during 12 weeks (highest dose) (rabbits): 1/40; action on smooth muscle [1]: spasmolytic; lymphatic system: proliferous centers and small lymphocytes (lymphatic system): The structure of the proliferous centers became imperceptible, and also the amount of small lymphocytes diminished; lymphatic system: rete elements (lymphatic system): hypertrophy of rete elements; alterations in the lymphatic system (lymphatic system; especially mesenteric lymph nodes): very discretely marked involutional alterations; period over which animals die ([2]; in vivo): up to 10 days; relative toxicity among the derivatives of acridine ([2]; in vivo): relatively lower toxicity; toxic signs at death ([2]; regardless of the way of administration, dihydrochloride): intensified symptoms of the alimentary canal; also recorded: A sharp intestinal obstruction of the paralytic type occurs; maximum tolerance dose during 12 weeks (highest dose) (rats [3]): 1/50; change of circulatory action by atropinization (circulatory system [4]): does not change the action of the preparation on the circulatory system; dose dependence of inhibition of Sa-180 growth (Crocker Sarcoma (Sa-180)): dependent upon the dose; respiratory effect, initial phase (respiratory system; at the appearance of hypotension): instinctive respiratory excitation; respiratory effect, massive doses (respiratory system; massive doses): depressive centrally for respiratory action, leading terminally to an apnoea; endogenous creatinine level in the serum (kidneys): remained unchanged; glomerular filterability (kidneys): maintained within standard limits; kidney histology (kidneys): some focal parenchymatous degeneration character in renal tubules; urine: pathological components and specific weight (kidneys): neither induced any appearance of pathological components in urine, nor changed its specific weight; influence on the thrombocyte system (peripheral blood; preliminary investigations): did not show the influence of the preparation on the thrombocyte system; picture of the peripheral blood (leukocytic, erythrocytic, hemoglobin levels) (peripheral blood; three-month study): did not change the picture of the peripheral blood; blood clotting (coagulation) time (peripheral blood; three-month study, not correlated with dosage): prolonged the blood clotting (coagulation) time; interaction with soporific (hypnotic) drugs (central nervous system; 10 LD50 (so in the source)): clear depressive component value; action in the presence of cardiazol and strychnine (central nervous system; in vivo): complex and non-characteristic; influence on spontaneous motility (central nervous system; in vivo): devoid, indeed, of an influence on the spontaneous motility of animals; liver function (transaminase AlAt, AspAt, acidic and alkaline phosphatase in serum) (liver): It could not be determined, that it could influence the functions of the liver; liver histology (liver): some weak (hardly perceptible) traits of the parenchymatous degeneration of glandular cells; thymol turbidity test (liver): positive; action on muscular coat of the small intestine [5]: rather a contracting (enterospasmatic) one; action on muscular coat of the small intestine [6]: rather a contracting (enterospasmatic) one; LD50 [7]: ~100 mg/kg; MTD by oral administration, lower than the sharp lethal dose by (mice and rats): 53-66%; effect on testicles (reproductory functions; 1/50 LD50, 14 days): some retrograde microscopical metaplasia within the germinal epithelium of spermatic tubules of the testicles, leading to a disorder in the spermatogenesis; effect on females fructified and newborn animals per brood (reproductory functions; 1/50 LD50, 14 days prior to connexion): reduced the amount of fructified females, as well as diminished the number of newborn animals in broods; effect on ovary (reproductory functions; 14 days): no observed pathological alteration in the ovary; development of the foetus and newborn animals (reproductory functions; 14 days prior to connexion): no macroscopic disorders of development of the foetus and newborn animals; LD50 [8]: 21 mg/kg; maximum tolerance dose (MTD), lower than LD50 by (mice): ~20%; LD50 [9]: 13 mg/kg; maximum tolerance dose (MTD), lower than LD50 by (rats [10]): about 30%; local action of aqueous solution ([11]; 0.05-1% aqueous solution): locally irritating action; local action at higher concentrations ([11]; higher concentrations, aqueous solution): narcotizing effect; local irritation with phosphate buffer as solvent ([11]; phosphate buffer solution of Sorensen at pH 7): partially alleviated; ECG intervals: PQ and QRS sections (circulatory system [12]; higher doses, intravenously): prolonging the PQ section and in widening the QRS section; blood pressure and conductivity disturbances (circulatory system [12]; higher doses, intravenously): intensified hypotension, induced some disturbances characteristic enough of the acridine compounds both in the atrio-ventricular and intraventricular conductivity; electrocardiographic changes (circulatory system [12]; initially, intravenously, doses increasing to 5 mg/kg): initially was not accompanied by any electrocardiographic changes; effect on blood pressure (circulatory system [12]; intravenously, doses increasing to 5 mg/kg, rabbits, cats): transient hypotension effect; conductivity disturbance at lethal doses (circulatory system [12]; lethal doses): total auriculoventricular dissociation; character of circulatory effect (circulatory system [12]; lower and moderate doses): transient character; action on muscular coat of blood-vessels (circulatory system [12]; rabbit, in vivo): tonic action on the muscular coat of the blood-vessels

Source: US4150231A, “1-Nitro-9-dialkylaminoisoalkylaminoacridines or their salts” (priority 1976, dated 1979)
